Results reported in PMC12363342, “Investigating the N-terminal linker histone H1 subtypes as substrates for JmjC lysine demethylases” (RSC Chemical Biology, 2025).
Square brackets hold non-standard residues; d marks the D form. Ends that are not written are not given here. Lys(Me3) = C[N+](C)(C)CCCC[C@H](N)C(=O)O

target: T1, KDM4E (Homo sapiens, UniProt B2RXH2); assay: formaldehyde dehydrogenase (FDH)-coupled demethylation assay, KDM4E; assay type: biochemical; conditions: FDH-coupled assay, KDM4E (400 nM), Fig. S25
T1 construct: KDM4DM1-L359,[39]; KDM4EM1-R336,[30]; His6 (N); made in house; host or cells: Escherichia coli
T1 sequence (B2RXH2 1-336): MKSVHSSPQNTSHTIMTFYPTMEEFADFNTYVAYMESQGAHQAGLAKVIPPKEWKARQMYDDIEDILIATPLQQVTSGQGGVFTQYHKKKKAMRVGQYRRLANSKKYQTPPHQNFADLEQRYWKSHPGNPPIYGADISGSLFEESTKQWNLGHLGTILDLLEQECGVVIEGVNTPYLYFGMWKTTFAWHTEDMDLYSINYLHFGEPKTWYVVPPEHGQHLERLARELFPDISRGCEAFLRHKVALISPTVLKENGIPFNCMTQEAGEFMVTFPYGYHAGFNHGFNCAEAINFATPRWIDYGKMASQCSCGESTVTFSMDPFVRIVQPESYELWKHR
Description: Kinetic parameters were determined by recording the initial reaction rates of NADH production at varying histone peptide concentrations (Fig. S24 and S25).
Kinetic parameters for demethylation of N^ε-trimethylated H1 peptides by KDM4D and KDM4E (400 nM) measured using a formaldehyde dehydrogenase-coupled demethylation assay. H1 peptide (1–50 μM), FAS (20 μM), LAA (200 μM), 2OG (200 μM), NAD^+ (500 μM), KDM4 enzyme (0.8 μM) and FDH (2.0 μM) in HEPES buffer at pH 7.5.
Substrate Km values for KDM4 enzymes were determined using a reported formaldehyde dehydrogenase/NAD coupled enzyme assay that quantifies formaldehyde production.[30] In brief, DNA encoding for wild-type full-length formaldehyde dehydrogenase was synthesised (by GenScript) and cloned into the pET-28B vector. The resultant plasmid was then transformed into the Rosetta strain of Escherichia coli. Coupled enzyme-assays were carried out in black polystyrene 384-well non-binding surface microplates (Corning) and kinetic measurements were obtained using a PHERAstar FS plate reader (BMG Labtech) equipped with a 350 nm excitation and 460 nm emission optic module.[30] All steps were performed in the assay buffer (50 mM HEPES pH 7.5, 0.01% (v/v) Tween-20). Substrate mixtures were prepared freshly and contained FAS (20 μM), LAA (200 μM), 2OG (200 μM), NAD^+ (500 μM), and H1 peptide (1–50 μM); they were dispensed (25 μL final volume) in triplicate. Assays were initiated by plate reader injection of 25 μL of a mixture of KDM4 (0.8 μM) and formaldehyde dehydrogenase (FDH) (2.0 μM) in assay buffer (50 mM HEPES pH 7.5, 0.01% (v/v) Tween-20). Production of NADH was measured at 60 second intervals over 25 cycles. Kinetic parameters were determined from the reaction rate during the initial linear phase of formaldehyde production, and specific activities were calculated from a formaldehyde standard curve and fitted to the Michaelis–Menten equation using GraphPad Prism Version 5.0 (GraphPad software, La Jolla, CA, USA). Each assay was carried out in triplicate with independently prepared reaction mixtures.

| Substance | substrate inhibition in Michaelis-Menten kinetics (KDM4E) |
| --- | --- |
| KKKAR[Lys(Me3)]SAGAAKRKA [Peptide H1.4K25me3, 15-mer linker histone H1.4 residues 20-34 peptide, tri-methylated K25] | evidence for substrate inhibition |
| KKKAA[Lys(Me3)]KAGGTPRKA [Peptide H1.2K25me3, 15-mer linker histone H1.2 residues 20-34 peptide, tri-methylated K25] | evidence for substrate inhibition |

same assay, conditions: FDH-coupled fluorescence assay; KDM4E (400 nM), peptide 1–50 μM, FAS 20 μM, LAA 200 μM, 2OG 200 μM, NAD+ 500 μM, FDH 2.0 μM, HEPES pH 7.5; mean ± SEM (n = 3)

| Substance | Km [µM] | kcat (KDM4E) [s⁻¹] |
| --- | --- | --- |
| KKKAAK[Lys(Me3)]AGGTPRKA [Peptide H1.2K26me3, 15-mer linker histone H1.2 residues 20-34 peptide, tri-methylated K26] | 5.22 ± 0.54 | 0.0313 ± 0.0015 |
| KKKAR[Lys(Me3)]SAGAAKRKA [Peptide H1.4K25me3, 15-mer linker histone H1.4 residues 20-34 peptide, tri-methylated K25] | 11.5 ± 3.19 | 0.0435 ± 0.00783 |
| KKKAA[Lys(Me3)]KAGGTPRKA [Peptide H1.2K25me3, 15-mer linker histone H1.2 residues 20-34 peptide, tri-methylated K25] | 18.5 ± 6.87 | 0.0767 ± 0.0218 |
| KKKA[Lys(Me3)]KAGATAGKRK [Peptide H1.3K24me3, 15-mer linker histone H1.3 residues 20-34 peptide, tri-methylated K24] | 6.45 ± 1.51 | 0.0333 ± 0.00417 |
| KKKATK[Lys(Me3)]AAGAGAAK [Peptide H1.5K26me3, 15-mer linker histone H1.5 residues 20-34 peptide, tri-methylated K26] | 4.04 ± 0.51 | 0.0218 ± 0.0013 |

same assay, conditions: FDH-coupled fluorescence assay; KDM4E (400 nM), peptide 1–50 μM, HEPES pH 7.5; catalytic efficiency

| Substance | kcat/KM (KDM4E) [M⁻¹ s⁻¹] |
| --- | --- |
| KKKAAK[Lys(Me3)]AGGTPRKA [Peptide H1.2K26me3, 15-mer linker histone H1.2 residues 20-34 peptide, tri-methylated K26] | 6000 |
| KKKAR[Lys(Me3)]SAGAAKRKA [Peptide H1.4K25me3, 15-mer linker histone H1.4 residues 20-34 peptide, tri-methylated K25] | 3770 |
| KKKAA[Lys(Me3)]KAGGTPRKA [Peptide H1.2K25me3, 15-mer linker histone H1.2 residues 20-34 peptide, tri-methylated K25] | 4120 |
| KKKA[Lys(Me3)]KAGATAGKRK [Peptide H1.3K24me3, 15-mer linker histone H1.3 residues 20-34 peptide, tri-methylated K24] | 5170 |
| KKKATK[Lys(Me3)]AAGAGAAK [Peptide H1.5K26me3, 15-mer linker histone H1.5 residues 20-34 peptide, tri-methylated K26] | 5400 |
